Reference: patent US8901301B2, “Pyrrolo[2,3-]pyridine kinase inhibitors” (Plexxikon Inc., priority 2009, dated 2014)

Columns and labels:
Src = Src (Homo sapiens, UniProt P12931); experiment: Biochemical inhibitory activity, other protein kinases: Src; settings: for Kinase having IC50 of >1 μM: listing of the kinase means IC50 >1 μM; for Kinase having IC50 of <1 μM: listing of the kinase means IC50 <1 μM
Kit = Kit (Homo sapiens, UniProt P10721); experiment: Biochemical inhibitory activity, other protein kinases: Kit; settings: for Kinase having IC50 of >1 μM: listing of the kinase means IC50 >1 μM
Chain of Kit (P10721 26-976, species assumed): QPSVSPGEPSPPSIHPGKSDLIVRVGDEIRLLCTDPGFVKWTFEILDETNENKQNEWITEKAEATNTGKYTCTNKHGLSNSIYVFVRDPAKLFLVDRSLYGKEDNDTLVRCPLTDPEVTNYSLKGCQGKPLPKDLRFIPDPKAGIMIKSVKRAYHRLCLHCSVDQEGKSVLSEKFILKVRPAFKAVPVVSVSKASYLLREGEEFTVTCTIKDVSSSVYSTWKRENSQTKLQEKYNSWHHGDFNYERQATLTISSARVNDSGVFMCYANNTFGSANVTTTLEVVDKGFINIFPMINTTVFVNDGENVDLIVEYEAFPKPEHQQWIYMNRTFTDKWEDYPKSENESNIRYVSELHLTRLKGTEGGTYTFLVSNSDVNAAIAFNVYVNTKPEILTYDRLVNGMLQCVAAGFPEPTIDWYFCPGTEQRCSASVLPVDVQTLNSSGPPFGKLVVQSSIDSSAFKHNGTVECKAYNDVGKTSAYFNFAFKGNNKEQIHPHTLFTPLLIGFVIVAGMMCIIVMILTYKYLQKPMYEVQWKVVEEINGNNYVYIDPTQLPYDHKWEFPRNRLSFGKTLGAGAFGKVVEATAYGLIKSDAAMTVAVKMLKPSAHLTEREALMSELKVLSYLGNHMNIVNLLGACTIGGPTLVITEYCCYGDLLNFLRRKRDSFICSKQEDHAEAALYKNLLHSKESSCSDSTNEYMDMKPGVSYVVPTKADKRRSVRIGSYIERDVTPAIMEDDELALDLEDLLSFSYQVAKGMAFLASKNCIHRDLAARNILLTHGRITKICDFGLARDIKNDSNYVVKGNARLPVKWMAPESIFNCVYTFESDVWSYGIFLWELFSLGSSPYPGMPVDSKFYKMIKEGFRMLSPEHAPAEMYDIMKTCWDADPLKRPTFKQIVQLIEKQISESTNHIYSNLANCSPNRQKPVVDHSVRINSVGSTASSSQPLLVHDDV

CYP3A4(BQ) = target: T1, CYP3A4(BQ) (Homo sapiens, UniProt P08684); experiment: CYP inhibition (fluorescent substrate), CYP3A4(BQ); type: in vitro ADME; settings: read-out: Cyp IC50 (μM) 3A4(BQ)
T1 construct: purchased BD Biosciences
T1 sequence (P08684 whole entry): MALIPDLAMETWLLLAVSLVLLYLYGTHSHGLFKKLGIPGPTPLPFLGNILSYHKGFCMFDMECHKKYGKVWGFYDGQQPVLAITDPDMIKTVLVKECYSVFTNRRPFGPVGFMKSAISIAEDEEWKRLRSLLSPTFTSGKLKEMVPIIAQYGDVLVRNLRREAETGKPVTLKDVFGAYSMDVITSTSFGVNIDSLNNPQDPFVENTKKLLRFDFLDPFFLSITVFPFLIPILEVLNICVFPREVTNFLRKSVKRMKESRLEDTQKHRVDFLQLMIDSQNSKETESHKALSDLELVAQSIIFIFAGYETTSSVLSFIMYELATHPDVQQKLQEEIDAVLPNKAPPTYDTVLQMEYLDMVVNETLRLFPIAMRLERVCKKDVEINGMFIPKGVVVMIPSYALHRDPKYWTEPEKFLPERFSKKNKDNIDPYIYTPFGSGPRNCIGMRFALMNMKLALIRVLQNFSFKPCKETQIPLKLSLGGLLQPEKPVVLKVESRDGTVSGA
Procedure: (§1) CYP (Cytochrome P450) enzymes are the major drug metabolizing enzymes present in the liver. The inhibition of CYP enzyme activity (IC50) for each of CYP1A2, CYP2C19, CYP2C9, CYP2D6, CYP3A4(BFC) and CYP3A4(BQ) is determined for compounds, where inhibition of metabolism of a known substrate leads to a decrease in the fluorescence of the metabolized product. The fluorescence of the product is monitored as a function of compound concentration. Compounds are dissolved in dimethyl sulfoxide to a concentration of 100 mM. These are diluted 1 μL into 82 μL of acetonitrile. An 11 μL aliquot of this solution is then added to 204 μL of cofactor mix (1.3% NADPH Regeneration system Solution A, 1.04% NADPH Regeneration system Solution B from BD Biosciences, 5% acetonitrile and 0.05% dimethyl sulfoxide). These are then serially diluted 1:1 (160 μL to 160 μL co-factor mix) for a total of 10 points. A 10 μL aliquot of this final mixture is dispensed into 384 well assay plates and incubated for 10 minutes at 37° C. […] Assay plates are incubated at 37° C. (CYP1A2-15 min; CYP2C9-45 min; CYP2C19, 2D6 and 3A4-30 min) and read in a Tecan Safire 2 plate reader (CYP1A2, 2C19 and 3A4 409 ex/460 em; CYP2C9 and 2D6 409 ex/530 em). The signal versus compound concentration is used to determine the IC50. The enzymes and substrates for this assay are obtained from BD Biosciences.

MAPKAPK2 = MAPKAPK2 (Homo sapiens, UniProt P49137); experiment: Biochemical inhibitory activity, other protein kinases: MAPKAPK2; settings: listing of the kinase means IC50 >1 μM
Chain of MAPKAPK2 (P49137 whole entry, species assumed): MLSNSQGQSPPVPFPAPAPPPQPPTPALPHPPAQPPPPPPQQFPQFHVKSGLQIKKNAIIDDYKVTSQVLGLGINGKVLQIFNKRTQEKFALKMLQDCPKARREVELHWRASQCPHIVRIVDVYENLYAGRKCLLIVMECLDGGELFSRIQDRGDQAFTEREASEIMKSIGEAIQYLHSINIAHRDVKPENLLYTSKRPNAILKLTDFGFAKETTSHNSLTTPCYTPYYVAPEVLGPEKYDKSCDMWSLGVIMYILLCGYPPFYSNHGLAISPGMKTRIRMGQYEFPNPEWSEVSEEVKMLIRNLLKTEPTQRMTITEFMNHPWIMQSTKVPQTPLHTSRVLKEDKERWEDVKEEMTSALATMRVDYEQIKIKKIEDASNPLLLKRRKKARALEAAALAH

CYP3A4(BFC) = target: T2, CYP3A4(BFC) (Homo sapiens, UniProt P08684); experiment: CYP inhibition (fluorescent substrate), CYP3A4(BFC); type: in vitro ADME; settings: read-out: Cyp IC50 (μM) 3A4(BFC)
T2 construct: purchased BD Biosciences
T2 sequence (P08684 whole entry): as the sequence (P08684 whole entry) above
Procedure: as §1

Raf kinases = experiment: Biochemical assay, Raf kinases as well as other kinases
Procedure: Assays for biochemical and cell based activity are known in the art, for example, as described in PCT publication WO 2007/002433, the disclosure of which is hereby incorporated by reference as it relates to such assays. For example, the biochemical activity IC50 values are determined with respect to inhibition of A-Raf kinase activity, B-Raf kinase activity, c-Raf-1 kinase activity, or B-Raf V600E kinase activity, where inhibition of phosphorylation of a peptide substrate is measured as a function of compound concentration. Compounds to be tested are diluted in dimethyl sulfoxide to a concentration of 0.1 mM. These are serially diluted 15 μL into 30 μL of dimethyl sulfoxide seven times in 96 well plates for a total of 8 dilution points, and for each dilution point 1 μL is added to a well of an assay plate. Plates are prepared such that each well in a 384 well plate contains 1 μL of compound in 10 μL volume with 0.1 ng Raf enzyme (i.e. any of A-Raf, B-Raf, c-Raf-1 or B-Raf V600E, Upstate Biotechnology or prepared by methods known to one of skill in the art), 50 mM HEPES, pH 7.0, 50 mM NaCl, 2 mM MgCl2, 1 mM MnCl2, 0.01% Tween-20, 1 mM DTT, and 100 nM biotin-MEK1 as substrate. The reaction is started with addition of 10 μL of 200 μM ATP (i.e. final 100 μM ATP). After incubation of the kinase reaction for 45 minutes at room temperature, 5 μL/well of Stop Solution is added (25 mM Hepes pH 7.5, 100 mM EDTA, 0.01% BSA with donor beads (Streptavidin coated beads, Perkin Elmer), acceptor beads (Protein A coated, Perkin Elmer), and anti phosphor MEK1/2 antibody (CellSignal), each at final concentration 10 μg/mL). The plates are incubated for 3 hours at room temperature and read on Envision reader (Perkin Elmer). Phosphorylation of Mek1 results in binding of the anti-phosphor-MEK1/2 antibody and association of the donor and acceptor beads such that signal correlates with kinase activity. The signal vs. compound concentration is used to determine the IC50.

Fms = Fms (Homo sapiens, UniProt P07333); experiment: Biochemical inhibitory activity, other protein kinases: Fms; settings: listing of the kinase means IC50 >1 μM
Chain of Fms (P07333 20-972, species assumed): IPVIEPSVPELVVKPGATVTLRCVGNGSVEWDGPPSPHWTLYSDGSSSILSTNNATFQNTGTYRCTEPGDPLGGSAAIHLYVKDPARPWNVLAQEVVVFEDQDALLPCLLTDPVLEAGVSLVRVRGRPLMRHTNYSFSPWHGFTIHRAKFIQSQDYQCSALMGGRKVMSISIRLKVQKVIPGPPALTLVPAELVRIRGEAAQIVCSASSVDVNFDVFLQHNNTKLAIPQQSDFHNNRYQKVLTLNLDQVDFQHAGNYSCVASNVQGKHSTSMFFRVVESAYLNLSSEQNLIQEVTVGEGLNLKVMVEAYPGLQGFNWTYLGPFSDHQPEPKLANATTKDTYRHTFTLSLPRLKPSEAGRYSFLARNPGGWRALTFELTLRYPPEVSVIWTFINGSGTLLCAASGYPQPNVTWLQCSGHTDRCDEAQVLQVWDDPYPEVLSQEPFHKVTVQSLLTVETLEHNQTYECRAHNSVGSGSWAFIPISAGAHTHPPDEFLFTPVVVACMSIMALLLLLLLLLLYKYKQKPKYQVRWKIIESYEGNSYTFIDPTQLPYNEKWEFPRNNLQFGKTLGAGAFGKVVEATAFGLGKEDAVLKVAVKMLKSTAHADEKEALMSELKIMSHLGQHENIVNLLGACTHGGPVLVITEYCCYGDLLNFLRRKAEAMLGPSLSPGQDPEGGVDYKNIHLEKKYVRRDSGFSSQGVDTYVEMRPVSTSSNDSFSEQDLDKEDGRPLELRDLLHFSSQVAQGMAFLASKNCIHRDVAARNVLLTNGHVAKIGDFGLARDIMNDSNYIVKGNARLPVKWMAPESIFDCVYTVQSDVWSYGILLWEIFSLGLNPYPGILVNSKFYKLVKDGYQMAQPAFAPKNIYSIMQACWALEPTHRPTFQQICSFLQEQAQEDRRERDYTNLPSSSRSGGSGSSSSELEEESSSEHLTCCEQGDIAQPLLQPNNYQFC

SW620 cells = experiment: Cell growth inhibition (Cell Titer Glo), SW620; type: cell-based; settings: Homo sapiens, SW-620, 72 h; wild-type B-RAF cell line, 3 days
Procedure: (§2) Compounds are assessed in a variety of cell based assays, employing cells with or without B-Raf V600E mutation, for example cell lines with B-Raf V600E mutation (A375 and COLO205), as well as tumorigenic cell lines with wild-type B-RAF (SW620 and SK-MEL-2). Reagent and assay conditions are as follows:
SW620 cells growth medium: • Leibovitz's L-15 medium, 2 mM L-glutamine, 10% fetal bovine serum.
(§3) SK-MEL-2 cells growth medium: • Minimum Eagle essential medium, 2 mM L-glutamine, 1.5 g/L sodium bicarbonate, 0.1 mM non-essential amino acids, 1.0 mM sodium pyruvate, 10% fetal bovine serum. • On day 1, cells are seeded in growth media in 200 μL per well in a 96-well polystyrene tissue culture plate at 2,000 cells per well (A375, COLO205, SK-MEL-2) or 5,000 cells per well for SW620, and incubated at 37° C. and 5% CO2 overnight. • On day 2, compound at 4 mM in dimethyl sulfoxide is serially diluted 1:4 (10 μL with 30 μL dimethyl sulfoxide) seven times for a total of 8 concentration points. For each dilution point a 1 μL aliquot is added to a well containing cells (highest dilution point at 20 μM), with 1 μL of dimethyl sulfoxide as a negative control (each sample at 0.5% dimethyl sulfoxide). The cells are incubated for 3 days at 37° C. in 5% CO2. • On day 5, Cell Titer Glo (Promega) is thawed and added 100 μL to each well and the plate shaken for 1-2 minutes. The plates are incubated for 10 minutes at room temperature, then […] signal is read (e.g. on Safire reader). The measured fluoresence correlates directly with cell number, such that the reading as a function of compound concentration is used to determine the IC50 value.

A375 cells = experiment: Cell growth inhibition (Cell Titer Glo), A375; type: cell-based; settings: Homo sapiens, A-375, 72 h; B-Raf V600E cell line, 3 days
Procedure: as §2
A375 cells growth medium: • Dulbecco's modified Eagle's medium, 4 mM L-glutamine, 4.5 g/L D-glucose, 10% fetal bovine serum.
as §3

Chain of Src (P12931 whole entry, species assumed): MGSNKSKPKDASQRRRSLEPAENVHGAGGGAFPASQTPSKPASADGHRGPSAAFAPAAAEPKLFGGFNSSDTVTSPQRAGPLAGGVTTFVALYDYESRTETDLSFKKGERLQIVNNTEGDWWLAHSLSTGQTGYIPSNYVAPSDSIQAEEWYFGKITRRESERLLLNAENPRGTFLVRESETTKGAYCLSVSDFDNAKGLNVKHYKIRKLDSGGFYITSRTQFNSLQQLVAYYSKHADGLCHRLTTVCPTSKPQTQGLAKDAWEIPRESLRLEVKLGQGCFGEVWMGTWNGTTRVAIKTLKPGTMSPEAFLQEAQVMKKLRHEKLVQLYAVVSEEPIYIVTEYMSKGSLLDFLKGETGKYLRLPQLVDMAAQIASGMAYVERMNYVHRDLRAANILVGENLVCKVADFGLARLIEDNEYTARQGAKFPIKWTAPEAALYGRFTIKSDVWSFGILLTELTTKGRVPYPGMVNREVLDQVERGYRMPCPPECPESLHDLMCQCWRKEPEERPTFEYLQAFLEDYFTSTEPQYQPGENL

| SMILES | Kinase having IC50 of >1 μM (Src) | Kinase having IC50 of >1 μM (Kit) | IC50 (CYP3A4(BQ)) | Kinase having IC50 of >1 μM (MAPKAPK2) | IC50 (CYP3A4(BFC)) | Kinase having IC50 of >1 μM (Fms) | IC50 (SW620 cells) | IC50 (A375 cells) | Kinase having IC50 of <1 μM (Src) | Kinase having IC50 of <1 μM (Kit; listing of the kinase means IC50 <1 μM) | Selectivity of inhibitory activity, Raf kinases versus other kinases (Raf kinases) |
| --- | --- | --- | --- | --- | --- | --- | --- | --- | --- | --- | --- |
| CCCS(=O)(=O)Nc1ccc(F)c(C(=O)c2c[nH]c3ncc(C#N)cc23)c1F [Compound P-0002, propane-1-sulfonic acid [3-(5-cyano-1H-pyrrolo[2,3-b]pyridine-3-carbonyl)-2,4-difluoro-phenyl]-amide] | Src | Kit | > 10 µM | MAPKAPK2 | > 10 µM | Fms | > 20 µM | < 1 µM |  |  | selective activity to the Raf kinases |
| CCCS(=O)(=O)Nc1cccc(C(=O)c2c[nH]c3ncc(C#N)cc23)c1F [Compound P-0003, propane-1-sulfonic acid [3-(5-cyano-1H-pyrrolo[2,3-b]pyridine-3-carbonyl)-2-fluoro-phenyl]-amide] | Src | Kit | > 10 µM | MAPKAPK2 | > 10 µM | Fms | > 20 µM | < 2 µM |  |  | selective activity to the Raf kinases |
| N#Cc1cnc2[nH]cc(C(=O)c3c(F)ccc(NS(=O)(=O)N4CCCC4)c3F)c2c1 [Compound P-0006, pyrrolidine-1-sulfonic acid [3-(5-cyano-1H-pyrrolo[2,3-b]pyridine-3-carbonyl)-2,4-difluoro-phenyl]-amide] | Src | Kit | > 10 µM | MAPKAPK2 | > 10 µM | Fms |  | < 1 µM |  |  | selective activity to the Raf kinases |

Continued, in another order:

| Kinase having IC50 of >1 μM (Src) | Kinase having IC50 of >1 μM (Kit) | IC50 (CYP3A4(BQ)) | Kinase having IC50 of >1 μM (MAPKAPK2) | IC50 (CYP3A4(BFC)) | Kinase having IC50 of >1 μM (Fms) | IC50 (SW620 cells) | IC50 (A375 cells) | Kinase having IC50 of <1 μM (Src) | Kinase having IC50 of <1 μM (Kit; listing of the kinase means IC50 <1 μM) | SMILES | Selectivity of inhibitory activity, Raf kinases versus other kinases (Raf kinases) |
| --- | --- | --- | --- | --- | --- | --- | --- | --- | --- | --- | --- |
| Src | Kit | > 10 µM | MAPKAPK2 | > 10 µM | Fms | > 20 µM | < 1 µM |  |  | CCCS(=O)(=O)Nc1ccc(F)c(C(=O)c2c[nH]c3ncc(-c4cnc(OC)nc4)cc23)c1F [Compound P-0001, propane-1-sulfonic acid {2,4-difluoro-3-[5-(2-methoxy-pyrimidin-5-yl)-1H-pyrrolo[2,3-b]pyridine-3-carbonyl]-phenyl}-amide] | selective activity to the Raf kinases |
|  |  | 5 to 10 µM |  | 5 to 10 µM | Fms | > 20 µM | < 1 µM | Src | Kit | N#Cc1cnc2[nH]cc(C(=O)c3c(F)ccc(NS(=O)(=O)c4cc(F)ccc4F)c3F)c2c1 [Compound P-0004, N-[3-(5-cyano-1H-pyrrolo[2,3-b]pyridine-3-carbonyl)-2,4-difluoro-phenyl]-2,5-difluoro-benzenesulfonamide] | selective activity to the Raf kinases |
|  | Kit | 5 to 10 µM |  | > 10 µM | Fms | > 20 µM | < 1 µM | Src |  | N#Cc1cnc2[nH]cc(C(=O)c3c(F)ccc(NS(=O)(=O)c4cccc(F)c4)c3F)c2c1 [Compound P-0005, N-[3-(5-cyano-1H-pyrrolo[2,3-b]pyridine-3-carbonyl)-2,4-difluoro-phenyl]-3-fluoro-benzenesulfonamide] | selective activity to the Raf kinases |
| Src | Kit | < 5 µM | MAPKAPK2 | 5 to 10 µM | Fms | > 20 µM | < 2 µM |  |  | CN(C)S(=O)(=O)Nc1ccc(F)c(C(=O)c2c[nH]c3ncc(C#N)cc23)c1F [Compound P-0007, N,N-dimethylamino-sulfonic acid [3-(5-cyano-1H-pyrrolo[2,3-b]pyridine-3-carbonyl)-2,4-difluoro-phenyl]-amide] | selective activity to the Raf kinases |
